Assay results taken from patent US7842683B2, “Neurotherapeutic compositions and method” (Revaax Pharmaceuticals, LLC, priority 1999, dated 2010).
Read-outs that look alike come from different tables or passages of the source.

Tests used:
[1] = tested on: hamsters and other test species; test: Animal tests: effective dose for neuroactivity; format: in vivo; conditions: for threshold effective dose (administered parenterally): parenteral
Method: Animal tests indicate a threshold effective dose of moxalactam (administered parenterally) to be about 50 μg/kg of body weight. Based on animal test data and on the known distribution of parenterally administered moxalactam between the brain and other body tissues, that the effective minimum neurogenic protease inhibiting, concentration of moxalactam in the brain is about 30 nM. […] For parenterally administered moxalactam the minimum effective dose in hamsters and other test species is about 50 micrograms per kg of body weight, more or less. The use of moxalactam in an oral dosage form, preferably modified or derivatized in the form of an active ester, is estimated to range from about 2.5 to about 50 mg per dose, much less than the dose of moxalactam necessary to provide therapeutically effective antibiotic concentration. The effective oral dose of clavulanate is expected to be about 0.1 to about 10 mgs per dose.

rats [2] = test: Morris water maze, cue navigation; format: in vivo, rat
Method: (§1) On the day following the last day (Day 4) of spatial navigation, animals were tested for cue navigation. In these tests, the platform was raised above water level. One hr before testing animals were treated with Mox or saline vehicle. The same animals that were treated with Mox during spatial navigation were treated with Mox for cue navigation. Animals were run through a series of two minute trials with 45 min between trials. At each trial, the platform was moved to a different quadrant. The cue navigation study was identical to the spatial navigation except the platform was visible and the testing was done over five consecutive trials done on a single day. Animals were scored for latency to find the platform, percent time spent in each quadrant, path distance and swim speed for all testing periods
as §1, with “CLAV” for “Mox”, “animals” for “animals that were”, “min” for “minute”

Male Wistar rats = test: Elevated plus-maze (anxiolytic activity); format: in vivo, rat
From the text: (§2) The elevated plus-maze was developed for the detection of anxiolytic and anxiogenic drug effects in the rat (Pellow et al., 1985). The method has been validated behaviorally, physiologically, and pharmacologically. The plus-maze consists of two open arms and two enclosed arms. […] Conversely, anxiogenic compounds like yohimbin or amphetamines reduce open arm entries and time spent in the open arms.
Male Wistar rats weighing 250-300 g were group housed in a normal 12:12 light-dark cycle light on at 0800 hr and provide food and water ad libitum. The plus-maze consisted of two open arms, 50×10 cm, and two enclosed arms 50×10×40 cm with an open roof, arranged such that the two open arms were opposite to each other. The maze was elevated to a height of 50 cm.
Eight animals were tested in the plus-maze 90 min following IP injection with 50 μg/kg Mox and saline vehicle. The order of treatments was counter balanced with at least 48 hrs between injections. At the start of the experiment the animal was place in the center of the plus maze facing the closed arm. Over a five min observation period, animals were scored for the latency to enter the closed arm, time spent in the closed arm and the number of open arm entries following the first occupation of the closed arm (FIG. 7).
Because Mox and CDP have different bioavailability profiles, e.g. brain penetrance, their CNS activity could not be compared by giving systemic injections of equimolar concentrations of each drug. Instead it was necessary to give both drugs directly into the cerebroventricular system to by pass the blood brain barrier. Animals were anesthetized with sodium pentobarbital (50 mg/kg), implanted with microinjection guide cannulae aimed at the lateral ventricle and allowed to recover for two days before testing. To groups of six animals each were tested with Mox or CDP. Each animals received a injection of drug and 0.9% NaCl vehicle on two separate days. The order of injections was counterbalanced and separated by two days. Both Mox and CDP were prepared in 0.9% NaCl at a concentration of 1 mM. All injections were given in a volume of 2 ul over 10 secs in fully conscious, restrained animals. Sixty min later animals were tested in the plus-maze for a 3 min observation period and scored for behaviors as noted previously.
as §2, with “screening” for “the detection of”
Male Wistar rats weighing 250-300 g were group housed in a normal 12:12 light-dark cycle with light on at 0800 hr and provided food and water ad libitum. The plus-maze consisted of two open arms, 50 cm long, 10 cm wide, with walls 40 cm high made of clear Plexiglas. The two closed arms had the same dimensions but included a roof. The Plexiglas for the closed arms was painted black. Each pair of arms was arranged opposite to each other to form the plus-maze. The maze was elevated to a height of 50 cm. Eighteen animals were tested in the plus-maze 90 min following the IP injection of 1.0 μg/kg CLAV, 50 or vehicle control in a volume of ca. 0.3 ml. The order of treatments was counter balanced with at least 48 hrs between injections. At the start of the experiment, the animal was placed at the end of one of the open arms. Over a five min observation period, animals were scored for the latency to enter the closed arm, time spent in the closed arm and the number of open arm entries following the first occupation of the closed arm. The study produced tables of repeated measures. The data between treatments were compared with a two-way, repeated measures ANOVA followed by Bonferroni post hoc tests. […]

rats [3] = test: Motor activity in an open field (plus-maze animals); format: in vivo, rat
Method: However, this depression of motor activity disappears following repeated administration of CDP over several days. […] To control for any non-specific effects of Mox and CDP on motor activity following their direct injection into the brain, animals were tested in the open field 30 min prior to testing in the plus (FIG. 18).
Immediately after each of the plus-maze tests reported above in Section II, animals were tested for general motor activity in an “open field.” Animals were placed into a large clean Plexiglas cage (48×32×40 cm) devoid of bedding. This open field was delineated into equal quadrants by tape on the underside of the cage. Animals were scored for motor activity by counting the number of quadrants traversed in 1 min.

[4] = in vivo, cited from earlier work
[5] = daily IP for seven days: CLAV 100 ng/kg, CDP 10 mg/kg

O=C(O)[C@H]1/C(=C/CO)O[C@@H]2CC(=O)N21 [CLAV, Clavulanic acid]
effective i.p. dose ([1]; i.p.): less than 1 microgram/kg | i.p. doses with psychotropic effects (antianxiety, antiaggression, cognition enhancement) ([1]; i.p.): less than 1 μg/kg | distance traveled to find the platform (rats [2]; CLAV): not significantly different | latency to find the platform (rats [2]; CLAV): no main effect for treatments | percentage of time spent in each quadrant (rats [2]; CLAV): no significant difference between treatments | swim rate (rats [2]; CLAV): no significant main effect | open arm entries (Male Wistar rats; CLAV 1.0 μg/kg IP, 90 min): increased movement into the lighted open arms | time spent in the open arm (Male Wistar rats; CLAV 1.0 μg/kg IP, 90 min): significantly increased | latency to enter the dark (time in starting open light position) (Male Wistar rats; CLAV 1.0 μg/kg IP, 90 min, five min observation): longer | latency to enter the dark closed arms (Male Wistar rats; [5]): significantly greater | time spent exposed to light in the open arms (Male Wistar rats; [5]): significantly greater | open field activity (quadrants traversed in 1 min) (rats [3]; CLAV 1.0 μg/kg IP, immediately after plus-maze): no significant differences | blood-brain barrier transport / CNS penetrability [4]: readily passes the blood-brain barrier | blood-brain barrier transport / CNS penetrability ([4]; listed as Clavulanate): good blood brain barrier transport

CO[C@@]1(NC(=O)C(C(=O)O)c2ccc(O)cc2)C(=O)N2C(C(=O)O)=C(CSc3nnnn3C)CO[C@@H]21 (stereo partly drawn) [Mox, 7-β-[2-carboxy-2-(4-hydroxyphenyl)acetamido]-7α-methoxy-3-[[(1-methyl-1H-tetrazol-5-yl)thio]methyl]-1-oxa-1-dethia-3-cephem-4-carboxylic acid]
threshold effective dose (administered parenterally) ([1]; listed as Moxalactam): ≥ 50 μg/kg of body weight | threshold effective dose (administered parenterally) ([1]; listed as moxalactam): about 50 μg/kg of body weight | path length (rats [2]; Mox): much shorter path length | percentage of time spent in each quadrant (rats [2]; Mox): no significant difference between treatments | swim speed (rats [2]; Mox): no significant difference | latency to find the platform (rats [2]; Mox, trials 1, 3 and 4): significantly shorter latencies | number of open arm entries (Male Wistar rats; 50 μg/kg IP, 90 min): significantly elevated | time spent in the closed arm (Male Wistar rats; 50 μg/kg IP, 90 min): significantly reduced | latency to enter the closed arm (Male Wistar rats; 50 μg/kg IP, 90 min, five min observation): significantly increased | time spent in the closed arm (dark) (Male Wistar rats; 1 mM, 2 ul into lateral ventricle, 60 min): significantly (p<0.01) lower | latency to enter the closed arm (Male Wistar rats; 1 mM, 2 ul into lateral ventricle, 60 min, 3 min observation): significantly (p<0.05) delayed | general motor activity in the open field (rats [3]; 1 mM direct injection into the brain, 30 min prior to plus-maze): no significant effect | blood-brain barrier transport / CNS penetrability [4]: greatest penetrability into the CNS | blood-brain barrier transport / CNS penetrability ([4]; listed as Moxalactam): can penetrate the blood brain barrier
